Results: patent publication US20080138853A1, “Method for evaluating the degree of maturity of corneocytes” (priority 2000, published 2008)

Assays:
[1] = tested on: horny layer of upper arm inside (cornified envelope); assay: Involucrin-positive CE in experimental rough skin on the inside of the upper arm; type: in vivo, human; settings: SDS-induced experimental rough skin, 3 to 4 specimens, non-treated group 0.09 ± 0.04
Excerpt: A cellophane adhesive tape was adhered on a face (cheek) and an upper arm of an examinee having skin troubles such as rough skin and immediately peeled off. […] The insoluble substances thus obtained was CE.
A result obtained by staining CE originating in the face of a person troubled with rough skin in the manner described above is shown in FIG. 1 (drawing substitute photograph), and shown in FIG. 2 (drawing substitute photograph) is a result obtained by staining CE originating in a horny layer obtained by experimental rough skin induced by sodium dodecylsulfate (SDS) processing or tape stripping on inside of upper arm without any skin troubles.
Further, the proportions of the involucrin-positive CE's in the SDS treated group and the tape stripping group in the experimental rough skin described above are shown in Table 1 in comparison with that of the involucrin-positive CE in the non-processed group (each 3 to 4 specimens).

[2] = tested on: human epidermal keratinocytes; assay: CE formation-promoting effect in cultured epidermal keratinocytes (involucrin immunostaining and Nile Red staining of CE); type: cell-based; settings: 100 μM fatty acid in MEM containing 0.1% bovine serum albumin, confluent keratinocytes, cultured one week; growth medium control 15.83 ± 3.49
Excerpt: Further, culture was continued for one week. […] The insoluble substances thus obtained were CE.

Row | Structure (SMILES) | Proportion of involucrin-positive CE (%) average ± SD [1] [%] | Proportion of involucrin-positive CE (%) average ± SD [2]
1 | CCCCCCCCCCCCOS(=O)(=O)[O-].[Na+] [SDS, sodium dodecylsulfate] | 6.21 ± 2.96 | 
2 | CCCCC/C=C\C/C=C\CCCCCCCC(=O)O [linoleic acid] |  | 0 (not detected) %
3 | CCCCCCCC/C=C\CCCCCCCC(=O)O [oleic acid] |  | 0 (not detected) %
